The compounds below were run against T1, GABAB receptor (GABABR1a/GABABR2 heterodimer) (Homo sapiens, UniProt O75899+Q9UBS5) (assay: [35S]-GTPγS binding assay, potency of PAM (GABA dose-response curves with and without test compound)). Details: potency of the positive allosteric modulator; GABA dose-response in presence of test compound.
T1 construct: expressed in transfected cells
T1 sequence (Q9UBS5 15-961 limits assumed): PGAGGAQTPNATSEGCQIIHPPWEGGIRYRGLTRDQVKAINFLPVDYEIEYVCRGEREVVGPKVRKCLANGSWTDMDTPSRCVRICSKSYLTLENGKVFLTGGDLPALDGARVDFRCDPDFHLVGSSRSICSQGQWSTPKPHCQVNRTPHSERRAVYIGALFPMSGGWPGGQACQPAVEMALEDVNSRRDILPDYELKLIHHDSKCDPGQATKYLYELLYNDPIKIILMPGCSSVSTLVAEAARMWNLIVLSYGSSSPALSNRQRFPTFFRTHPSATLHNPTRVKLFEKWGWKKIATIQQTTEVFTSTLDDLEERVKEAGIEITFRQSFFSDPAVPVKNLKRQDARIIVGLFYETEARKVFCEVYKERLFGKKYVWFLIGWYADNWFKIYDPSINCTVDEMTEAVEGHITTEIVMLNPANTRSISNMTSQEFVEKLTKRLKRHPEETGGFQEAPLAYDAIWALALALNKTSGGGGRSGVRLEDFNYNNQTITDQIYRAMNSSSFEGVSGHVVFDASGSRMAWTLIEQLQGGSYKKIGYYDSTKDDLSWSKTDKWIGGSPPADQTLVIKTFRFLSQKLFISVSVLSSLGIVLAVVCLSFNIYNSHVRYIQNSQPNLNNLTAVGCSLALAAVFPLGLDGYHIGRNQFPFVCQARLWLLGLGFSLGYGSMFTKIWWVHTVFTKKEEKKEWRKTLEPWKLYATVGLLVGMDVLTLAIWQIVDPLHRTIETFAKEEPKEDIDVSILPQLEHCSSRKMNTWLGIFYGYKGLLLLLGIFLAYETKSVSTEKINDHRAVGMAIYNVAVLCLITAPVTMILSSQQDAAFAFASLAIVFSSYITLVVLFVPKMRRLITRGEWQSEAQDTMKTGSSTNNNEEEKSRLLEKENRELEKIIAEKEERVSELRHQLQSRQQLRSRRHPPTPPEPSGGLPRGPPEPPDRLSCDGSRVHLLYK
T1 sequence (O75899 42-941): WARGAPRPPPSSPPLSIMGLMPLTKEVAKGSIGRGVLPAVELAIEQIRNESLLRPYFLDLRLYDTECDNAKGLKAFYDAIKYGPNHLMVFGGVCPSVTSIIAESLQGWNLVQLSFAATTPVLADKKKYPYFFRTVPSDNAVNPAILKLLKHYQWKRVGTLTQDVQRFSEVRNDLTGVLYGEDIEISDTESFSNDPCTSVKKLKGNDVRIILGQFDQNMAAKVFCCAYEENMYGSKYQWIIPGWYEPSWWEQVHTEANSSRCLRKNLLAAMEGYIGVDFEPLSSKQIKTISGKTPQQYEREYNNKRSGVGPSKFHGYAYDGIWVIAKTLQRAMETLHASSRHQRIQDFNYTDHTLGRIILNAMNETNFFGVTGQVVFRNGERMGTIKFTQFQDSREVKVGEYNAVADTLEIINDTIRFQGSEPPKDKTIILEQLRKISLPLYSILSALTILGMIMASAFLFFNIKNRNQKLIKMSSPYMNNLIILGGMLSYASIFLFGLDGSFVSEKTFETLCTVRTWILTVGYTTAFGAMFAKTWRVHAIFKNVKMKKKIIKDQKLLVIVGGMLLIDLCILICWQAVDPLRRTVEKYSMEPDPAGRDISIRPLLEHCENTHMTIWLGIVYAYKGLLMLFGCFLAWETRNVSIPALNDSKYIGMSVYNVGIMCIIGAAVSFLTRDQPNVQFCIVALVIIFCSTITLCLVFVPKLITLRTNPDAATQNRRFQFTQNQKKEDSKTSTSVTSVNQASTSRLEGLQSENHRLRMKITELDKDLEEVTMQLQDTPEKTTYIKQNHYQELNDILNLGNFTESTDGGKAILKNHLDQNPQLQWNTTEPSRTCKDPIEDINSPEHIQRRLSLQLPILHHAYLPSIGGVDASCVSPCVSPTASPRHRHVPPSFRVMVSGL
Format: biochemical
From the text: GABABR1a and GABABR2 were cloned from human brain cDNA and subcloned into pCI-Neo (Promega) and pALTER-1 (Promega), respectively. A GABABR1a-Gαqi5 fusion protein expression vector was constructed using the pCI-Neo-GABABR1a cDNA plasmid and pLEC1-Gαqi5 (Molecular Devices, CA). In order to make the Gαqi5 pertussis toxin insensitive, Cys356 was mutated to Gly using standard PCR methodology with the primers 5′-[…]-3′ (forward) and 5′-GCGGCCG […]-3′ (reverse). The Gαqi5mut cDNA was ligated into the BamHI and NotI sites of pcDNA3.0 (Invitrogen). The GABAB R1a coding sequence was amplified by PCR from pCI-Neo-GABABR1a using the primers, 5′-[…]-3′ (forward) and 5′-[…]-3′ (reverse) and subcloned into the BamHI site of pcDNA3.0-Gαqi5mut.
For generation of a cell line expressing the GABABR1a/GABABR2 heterodimer, GABABR1a plasmid DNA (4 μg) GABABR2 plasmid DNA (4 μg) and lipofectamine (24 μl) were mixed in 5 ml OptiMEM and incubated for 45 minutes at room temperature. The cells were exposed to the transfection medium for 5 hours, which then was replaced with culture medium. The cells were cultured for an additional 10 days before selection agents (300 μg/ml hygromycin and 400 μg/ml geneticin) were added. Twenty-four days after transfection, single cell sorting into 96-well plates by flow cytometry was performed using a FACS Vantage SE (Becton Dickinson, Palo Alto, Calif.). After expansion, the GABAB receptor functional response was tested using the FLIPR assay described below. The clone with the highest functional response was collected, expanded and then subcloned by single cell sorting. The clonal cell line with the highest peak response in the FLIPR was used in the present study.
For generation of a stable cell line expressing GABABR1a-Gαqi5 fusion protein and GABABR2, GABABR1a-Gαqi5mut plasmid DNA (8 μg) GABABR2 plasmid DNA (8 μg) and lipofectamine (24 μl) were mixed in 5 ml OptiMEM and incubated for 45 minutes at room temperature. The cells were exposed to the transfection medium for 5 hours, which then was replaced with culture medium. After forty-eight hours, the cells were detached and seeded in 6 well plates (2000 cells/well) and grown in culture medium supplemented with geneticin (400 μg/ml) and zeocin (250 μg/ml). After 4 days, cells from single colonies were collected and transferred to a 24-well plate. After 10 days, the cell clones were seeded in T-25 flasks and grown for another 16 days before they were tested for GABAB receptor mediated functional response. […] The clonal cell line that gave the highest peak response in the FLIPR was used in the present study.
[^35S]-GTPγS binding assays were performed at 30° C. for 45 min in membrane buffer (100 mM NaCl, 5 mM MgCl2, 1 mM EDTA, 50 mM HEPES, pH 7.4) containing 0.025 μg/μl of membrane protein (prepared from the cell lines described above) with 0.01% bovine serum albumin (fatty acid free), 10 μM GDP, 10 μM DTT and 0.53 nM [^35S]-GTPγS (Amersham-Pharmacia Biotech) in a final volume of 200 μl. Non-specific binding was determined in the presence of 20 μM GTPγS. The reaction was started by the addition of GABA at concentration between 1 mM and 0.1 nM in the presence or absence of the required concentration of PAM. The reaction was terminated by addition of ice-cold wash buffer (50 mM Tris-HCl, 5 mM MgCl2, 50 mM NaCl, pH 7.4) followed by rapid filtration under vacuum through Printed Filtermat A glass fiber filters (Wallac) (0.05% PEI treated) using a Micro 96 Harvester (Skatron Instruments). The filters were dried for 30 min at 50° C., then a paraffin scintillant pad was melted onto the filters and the bound radioactivity was determined using a 1450 Microbeta Trilux (Wallac) scintillation counter.
GABA dose-response curves in the presence and absence of test compounds were constructed using the 4-parameter logistic equation, y=ymax+((ymin−ymax)/1+(x/C)^D), where C=EC50 and D=slope factor.
`CCC(=O)Cn1c(=O)n(Cc2ccc(Cl)cc2)c(=O)c2c1nc(CC)n2C` [Example 33, 1-(4-chlorobenzyl)-8-ethyl-7-methyl-3-(2-oxobutyl)-3,7-dihydro-1H-purine-2,6-dione] gave an EC50 of 3.7 µM. `CCCn1c(=O)n(Cc2ccc(Cl)cc2)c(=O)c2c1nc(N1CCC(OC)CC1)n2C` [Example 84, 1-(4-chlorobenzyl)-8-(4-methoxypiperidin-1-yl)-7-methyl-3-propyl-3,7-dihydro-1H-purine-2,6-dione] showed an EC50 of 5.1 µM. `CCn1c(=O)n(Cc2ccc(Cl)cc2)c(=O)c2c1nc(OC)n2-c1ccc(F)cc1` [Example 77, 1-(4-chlorobenzyl)-3-ethyl-7-(4-fluorophenyl)-8-methoxy-3,7-dihydro-1H-purine-2,6-dione] gave an EC50 of 6.64 µM. For `CCc1nc2c(c(=O)n(Cc3ccc(Cl)cc3)c(=O)n2CCO[Si](C)(C)C(C)(C)C)n1C` [Example 29, 3-(2-{[tert-butyl(dimethyl)silyl]oxy}ethyl)-1-(4-chlorobenzyl)-8-ethyl-7-methyl-3,7-dihydro-1H-purine-2,6-dione], the EC50 was 8.6 µM. With `CCc1nc2c(c(=O)n(Cc3ccc(Cl)cc3)c(=O)n2Cc2cccnc2)n1C` [Example 18, 1-(4-Chlorobenzyl)-8-ethyl-7-methyl-3-(pyridin-3-ylmethyl)-3,7-dihydro-1H-purine-2,6-dione] the EC50 was 3.3 µM. In the case of `CCc1nc2c(c(=O)n(Cc3ccc(Cl)cc3)c(=O)n2Cc2ccc(C(F)(F)F)cc2)n1C` [Example 31, 1-(4-chlorobenzyl)-8-ethyl-7-methyl-3-[4-(trifluoromethyl)benzyl]-3,7-dihydro-1H-purine-2,6-dione], the EC50 is reported as 5.5 µM. Compound `CCCn1c(=O)n(Cc2ccc(Cl)cc2)c(=O)c2c1nc(N1CCOCC1)n2C` [Example 92, 1-(4-chlorobenzyl)-7-methyl-8-morpholin-4-yl-3-propyl-3,7-dihydro-1H-purine-2,6-dione] has an EC50 of 7.1 µM. `CCCn1c(=O)n(Cc2cnn(-c3ccc(Cl)cc3)c2C(F)(F)F)c(=O)c2c1nc(CC)n2C` [Example 59, 1-{[1-(4-Chlorophenyl)-5-(trifluoromethyl)-1H-pyrazol-4-yl]methyl}-8-ethyl-7-methyl-3-propyl-3,7-dihydro-1H-purine-2,6-dione] showed an EC50 of 5.9 µM. `CCc1nc2c(c(=O)n(Cc3ccc(Cl)cc3)c(=O)n2C[C@@H]2CCC(=O)N2)n1C` [Example 10, 1-(4-Chlorobenzyl)-8-ethyl-7-methyl-3-{[(2S)-5-oxopyrrolidin-2-yl]methyl}-3,7-dihydro-1H-purine-2,6-dione] was tested, and the EC50 was 14.6 µM. `CCc1nc2c(c(=O)n(Cc3ccc(Cl)cc3)c(=O)n2CCCC(F)(F)F)n1C` [Example 76] showed an EC50 of 4.9 µM. With `CCCn1c(=O)n(Cc2ccc(C(=O)c3ccccc3)cc2)c(=O)c2c1nc(CC)n2C` [Example 68, 1-(4-Benzoylbenzyl)-8-ethyl-7-methyl-3-propyl-3,7-dihydro-1H-purine-2,6-dione] the EC50 was 15.7 µM. `CCc1nc2c(c(=O)n(Cc3ccc(Cl)cc3)c(=O)n2CC(OC)OC)n1C` [Example 52, 1-(4-chlorobenzyl)-3-(2,2-dimethoxyethyl)-8-ethyl-7-methyl-3,7-dihydro-1H-purine-2,6-dione] showed an EC50 of 8.8 µM. Work on `CCCn1c(=O)n(Cc2ccc(Cl)cc2)c(=O)c2c1nc(N1CCSCC1)n2C` [Example 88, 1-(4-chlorobenzyl)-7-methyl-3-propyl-8-thiomorpholin-4-yl-3,7-dihydro-1H-purine-2,6-dione] yielded an EC50 of 3.7 µM. Compound `CCCn1c(=O)n(Cc2ccc(Cl)cc2)c(=O)c2c1nc(N1CCC1)n2C` [Example 83, 8-azetidin-1-yl-1-(4-chlorobenzyl)-7-methyl-3-propyl-3,7-dihydro-1H-purine-2,6-dione] has an EC50 of 7.8 µM. Compound `CCc1nc2c(c(=O)n(Cc3ccc(Cl)cc3)c(=O)n2CC(=O)OC)n1C` [Example 11, Methyl [1-(4-chlorobenzyl)-8-ethyl-7-methyl-2,6-dioxo-1,2,6,7-tetrahydro-3H-purin-3-yl]acetate] has an EC50 of 8.5 µM. For `CCCn1c(=O)n(Cc2ccc(OC)cc2)c(=O)c2c1nc(CC)n2C` [Example 69, 8-Ethyl-1-(4-methoxybenzyl)-7-methyl-3-propyl-3,7-dihydro-1H-purine-2,6-dione], the EC50 was 19.7 µM. Work on `CCc1nc2c(c(=O)n(Cc3ccc(Cl)cc3)c(=O)n2CCCN2CCC3(CC2)OCCO3)n1C` [Example 48, 1-(4-Chlorobenzyl)-3-[3-(1,4-dioxa-8-azaspiro[4.5]dec-8-yl)propyl]-8-ethyl-7-methyl-3,7-dihydro-1H-purine-2,6-dione] yielded an EC50 of 12.1 µM. Work on `CCc1nc2c(c(=O)n(Cc3ccc(Cl)cc3)c(=O)n2CCCOc2ccc(C(F)(F)F)cc2)n1C` [Example 36, 1-(4-chlorobenzyl)-8-ethyl-7-methyl-3-{3-[4-(trifluoromethyl)phenoxy]propyl}-3,7-dihydro-1H-purine-2,6-dione] yielded an EC50 of 6.6 µM. Work on `CCc1nc2c(c(=O)n(Cc3ccc(Cl)cc3)c(=O)n2CC(C)C)n1C` [Example 8, 1-(4-Chlorobenzyl)-8-ethyl-3-isobutyl-7-methyl-3,7-dihydro-1H-purine-2,6-dione] yielded an EC50 of 2.7 µM. With `CCCn1c(=O)n(Cc2ccc(Cl)c(Cl)c2)c(=O)c2c1nc(CC)n2C` [Example 57, 1-(3,4-Dichlorobenzyl)-8-ethyl-7-methyl-3-propyl-3,7-dihydro-1H-purine-2,6-dione] the EC50 was 2.6 µM. `CCc1nc2c(c(=O)n(Cc3ccc(Cl)cc3)c(=O)n2Cc2ccccn2)n1C` [Example 15, 1-(4-Chlorobenzyl)-8-ethyl-7-methyl-3-(pyridin-2-ylmethyl)-3,7-dihydro-1H-purine-2,6-dione] was tested, and the EC50 was 7.8 µM. `CCCn1c(=O)n(Cc2ccc(Cl)cc2)c(=O)c2c1nc(CC)n2CC` [Example 72, 1-(4-Chlorobenzyl)-7,8-diethyl-3-propyl-3,7-dihydro-H-purine-2,6-dione] gave an EC50 of 8.93 µM. `CCCn1c(=O)n(Cc2cccc(Cl)c2)c(=O)c2c1nc(CC)n2C` [Example 67, 1-(3-Chlorobenzyl)-8-ethyl-7-methyl-3-propyl-3,7-dihydro-1H-purine-2,6-dione] gave an EC50 of 15.1 µM. Compound `CCCn1c(=O)n(Cc2ccc(Cl)cc2)c(=O)c2c1nc(N1CCC[C@H]1COC)n2C` [Example 93, 1-(4-chlorobenzyl)-8-[(2S)-2-(methoxymethyl)pyrrolidin-1-yl]-7-methyl-3-propyl-3,7-dihydro-1H-purine-2,6-dione] has an EC50 of 7.2 µM. `CCCn1c(=O)n(Cc2ccc(Cl)cc2)c(=O)c2c1nc(N1CCN(C)CC1)n2C` [Example 87, 1-(4-chlorobenzyl)-7-methyl-8-(4-methylpiperazin-1-yl)-3-propyl-3,7-dihydro-1H-purine-2,6-dione] showed an EC50 of 15.6 µM. For `C=CCn1c(=O)n(Cc2ccc(Cl)cc2)c(=O)c2c1nc(CC)n2C` [Example 12, 3-Allyl-1-(4-chlorobenzyl)-8-ethyl-7-methyl-3,7-dihydro-1H-purine-2,6-dione], the EC50 was 6 µM. With `CCc1nc2c(c(=O)n(Cc3ccc(Cl)cc3)c(=O)n2CCN(CC)CC)n1C` [Example 27, 1-(4-chlorobenzyl)-3-[2-(diethylamino)ethyl]-8-ethyl-7-methyl-3,7-dihydro-1H-purine-2,6-dione] the EC50 was 15.6 µM. `CCCn1c(=O)n(Cc2ccc3nsnc3c2)c(=O)c2c1nc(CC)n2C` [Example 64, 1-(2,1,3-Benzothiadiazol-5-ylmethyl)-8-ethyl-7-methyl-3-propyl-3,7-dihydro-1H-purine-2,6-dione] was tested, and the EC50 was 11.1 µM.

Reference: patent publication US20090023704A1, “Novel Compounds 737” (ASTRAZENECA AB, priority 2007, published 2009)
